The record followed here is patent US20060089391A1, “Treatment of cancer in pediatric patients” (priority 2004, published 2006).

Where two headings read alike, the source gives them in different places. Where only a bound is given, the exact number is not on record here.

The subject of one data set is neuroblastoma. The experiment in a line: Clinical response in pediatric patients with neuroblastoma. Type of data set: in vivo, human. An excerpt:
Patients (n=19) with neuroblastoma have experienced time-to-disease progresson with a median progression free survival (FPS) of 20 weeks.

Data set [1] addresses biotinylated bovine brain tubulin. Particulars: competition of [3H]colchicine.
Data set [2] in a line: Pharmacokinetic profiles of pediatric patients after oral dosing. The class given is in vivo, human. Particulars: for area under the plasma concentration time curve / time of maximum plasma concentration: immediate release composition.
Where [3] appears, read: one 75 mg per mm^2 per day oral dose for 21 days.
[4] abbreviates: one 100 mg per mm^2 per day oral dose for 21 days.
Setting [5] is: one 130 mg per mm^2 per day oral dose for 21 days.
[6] abbreviates: one 165 mg per mm^2 per day oral dose for 21 days.
[7] abbreviates: one 200 mg per mm^2 per day oral dose for 21 days.
Setting [8] is: one 250 mg per mm^2 per day oral dose for 21 days.

The Ki is the equilibrium dissociation constant of an inhibitor or competing ligand from its target. The low end stands for higher affinity, the high end for lower affinity. Broadly, the Tmax is the time at which the peak concentration occurs. As usually defined, the Cmax is the peak of the concentration-time curve.

In the case of `COc1ccc(S(=O)(=O)Nc2cccnc2Nc2ccc(O)cc2)cc1` [ABT-751, N-(2-((4-hydroxyphenyl)amino)pyrid-3-yl)-4-methoxybenzenesulfonamide], the “clinical outcome of a single patient” value with neuroblastoma (patient with neuroblastoma, 100 mg/mm^2/d on the daily x7 schedule) is “disease stabilization after 44 cycles”. In the data set on neuroblastoma (patients (n=19) with neuroblastoma), the “median progression free survival (FPS)” value was determined as 20 weeks. For the same compound, the affinity in data set [1] corresponds to a Ki of 2.6 µM. In addition, the Tmax was found to be 2.0 h in data set [2] (250 mg/mm^2/d QD oral); 3 ± 1.7 h in data set [2] (human, in vivo, 200 QD oral, mean±SD, read-out: Tmax); 2.7 ± 0.6 h in data set [2] (human, plasma, 75 QD oral, mean±SD, read-out: Tmax); 1.9 ± 1 h in data set [2] (human, plasma, 100 QD oral, mean±SD, read-out: Tmax); 2.2 ± 0.8 h in data set [2] (human, plasma, 130 QD oral, mean±SD, read-out: Tmax); 3 ± 1.7 h in data set [2] (human, plasma, 165 QD oral, mean±SD, read-out: Tmax). Further, the Cmax in data set [2] (human, plasma, 75 QD oral, mean±SD) amounted to 8000 ± 1700 ng/mL; in data set [2] (human, plasma, 100 QD oral, mean±SD), 10600 ± 3000 ng/mL; in data set [2] (human, plasma, 130 QD oral, mean±SD), 10800 ± 2900 ng/mL; in data set [2] (human, plasma, 165 QD oral, mean±SD), 13500 ± 4600 ng/mL; in data set [2] (human, plasma, 200 QD oral, mean±SD), 16900 ± 8100 ng/mL; in data set [2] (human, plasma, 250 QD oral, mean±SD), 23300 ± 6500 ng/mL. Also, the “area under the plasma concentration time curve” value worked out at 52000 ± 21000 ng·h/mL in data set [2] (setting [3]); 60000 ± 19000 ng·h/mL in data set [2] (setting [4]); 62000 ± 19000 ng·h/mL in data set [2] (setting [5]); 90000 ± 27000 ng·h/mL in data set [2] (setting [6]); 91000 ± 24000 ng·h/mL in data set [2] (setting [7]); 129000 ± 23000 ng·h/mL in data set [2] (setting [8]). Moreover, the time of maximum plasma concentration in data set [2] (setting [3]) amounted to 2.7 ± 0.6 h; in data set [2] (setting [4]) it was 1.9 ± 1 h; in data set [2] (setting [5]) it was 2.2 ± 0.8 h; in data set [2] (setting [6]), 3 ± 1.7 h; in data set [2] (setting [7]), 3 ± 1.7 h; in data set [2] (setting [8]), 2 h.
In data set [1], `CC[C@]1(O)C[C@@H]2CN(CCc3c([nH]c4ccccc34)[C@@](C(=O)OC)(c3cc4c(cc3OC)N(C)[C@H]3[C@@](O)(C(=O)OC)[C@H](OC(C)=O)[C@]5(CC)C=CCN6CC[C@]43[C@@H]65)C2)C1` [vinblastine] registered a Ki of more than 100 µM.
